PubChem BioAssay (NCI)
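96-well plates; 48 h exposure; 5 concentrations. Endpoints by linear interpolation between flanking doses. Not reached: highest tested concentration assigned. GI50: concentration for 50% inhibition of growth. TGI denotes the concentration required for complete inhibition of growth.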

Assays:
Test in all cases: growth of human tumour cells (NCI), 48 h
[1] = tested on: BT-549 breast
[2] = tested on: PC-3 prostate
[3] = tested on: SNB-19 CNS
[4] = tested on: HCT-15 colon
[5] = tested on: EKVX NSCLC
[6] = tested on: CAKI-1 renal
[7] = tested on: OVCAR-8 ovarian
[8] = tested on: M14 melanoma
[9] = tested on: CCRF-CEM leukemia
[10] = tested on: LOX IMVI melanoma

Row | Structure (SMILES) | GI50 [1] | TGI [1] | GI50 [2] | TGI [2] | GI50 [3] | TGI [3] | GI50 [4] | TGI [4] | GI50 [5] | TGI [5] | GI50 [6] | TGI [6] | GI50 [7] | TGI [7] | GI50 [8] | TGI [8] | GI50 [9] | TGI [9] | TGI [10] | GI50 [10]
1 | CN1CC[C@@H](c2c(O)cc(O)c3c(=O)cc(-c4ccccc4Cl)oc23)[C@@H]1CO | 0.38 µM | 2.52 µM | 0.314 µM | 3.64 µM | 0.344 µM | > 10 µM | 0.351 µM | > 10 µM | 0.372 µM | > 8.02 µM | 0.204 µM | > 2.56 µM | 0.321 µM | > 10 µM | 0.331 µM | 1.26 µM | 0.259 µM | > 3.13 µM | – | –
2 | Cc1cccc(C(C)C)c1NC(=O)CC1C(=O)Nc2ccccc2S1(=O)=O (stereo unspecified) | – | – | – | – | – | > 68 µM | – | 19.5 µM | – | > 53.8 µM | – | > 50 µM | – | > 59 µM | – | > 64.2 µM | – | 30.2 µM | > 51.8 µM | –
3 | CC1(C)C2C=CC1(C)C1(CC2)OCCO1 (stereo unspecified) | – | – | – | > 100 µM | – | > 100 µM | – | > 100 µM | – | – | – | – | – | > 100 µM | – | > 100 µM | – | > 100 µM | > 100 µM | –
4 | CN1c2ccccc2N(C)C23N(C)c4ccccc4N(C)C12N(C)c1ccccc1N3C (stereo unspecified) | – | – | – | – | – | > 100 µM | – | > 100 µM | – | > 100 µM | – | > 100 µM | – | > 100 µM | – | > 100 µM | – | > 100 µM | > 100 µM | –
5 | Cc1ccc(Nc2nc(C)c(C(/C=C/c3ccc(/C=C/C(=N/NC(=O)C[n+]4ccccc4)c4sc(Nc5ccc(C)cc5[N+](=O)[O-])nc4C)cc3)=N\NC(=O)C[n+]3ccccc3)s2)c([N+](=O)[O-])c1 | – | – | – | – | – | > 100 µM | – | > 100 µM | – | > 100 µM | – | > 100 µM | – | > 100 µM | – | > 100 µM | – | > 100 µM | > 100 µM | –
6 | COc1ccc(/C=N/N=C(\N)NO)c(OC)c1 | – | – | – | – | – | > 100 µM | – | > 100 µM | – | > 100 µM | – | > 100 µM | – | > 100 µM | – | – | – | > 100 µM | > 100 µM | –
7 | [N-]=[N+]=NC(CI)c1cn([C@H]2C[C@H](O)[C@@H](CO)O2)c(=O)[nH]c1=O (stereo partly specified) | – | – | – | – | – | > 100 µM | – | > 100 µM | – | > 100 µM | – | > 100 µM | – | > 100 µM | – | > 100 µM | – | > 100 µM | > 100 µM | –
8 | Cc1ccc(S(=O)(=O)Nc2cccc3[nH]c(C(F)(F)F)nc23)cc1 | 0.62 µM | 52 µM | 0.56 µM | > 68.8 µM | 0.972 µM | > 100 µM | 0.408 µM | > 100 µM | – | – | 0.337 µM | 24.4 µM | 1.22 µM | > 47.8 µM | 0.355 µM | 38.6 µM | 1.16 µM | > 100 µM | > 100 µM | 0.829 µM
9 | Cc1ccccc1NC(=O)C(=O)CC(=O)c1c(C)n([O-])c2ccccc2[n+]1=O | – | – | – | – | – | > 100 µM | – | > 100 µM | – | > 100 µM | – | > 100 µM | – | > 100 µM | – | > 100 µM | – | – | – | –
10 | COc1cc(C2C(Cl)C(=O)N2NC(=O)c2ccc(N)cc2)ccc1O (stereo unspecified) | – | – | – | – | – | 78.9 µM | – | > 100 µM | – | > 100 µM | – | 78.9 µM | – | 47.4 µM | – | > 100 µM | – | 47.3 µM | 32.1 µM | –
11 | CCOC(=O)NC(=O)c1cn(CCN2CCN(c3ncnc4nc[nH]c34)CC2)c(=O)[nH]c1=O | – | – | – | – | – | > 100 µM | – | > 100 µM | – | > 100 µM | – | – | – | > 100 µM | – | > 100 µM | – | > 100 µM | > 100 µM | –
12 | CCOC(=O)C(=Cc1cccnc1C)C(=O)OCC | – | – | – | – | – | 23.6 µM | – | 19.4 µM | – | 42.1 µM | – | 18.9 µM | – | 16.9 µM | – | 24.2 µM | – | > 100 µM | 14.2 µM | –
13 | C[Si](C)(C)c1ccc(-c2sc(-c3ccc([Si](C)(C)C)s3)c3c2C[Si]2(C3)Cc3c(-c4ccc([Si](C)(C)C)s4)sc(-c4ccc([Si](C)(C)C)s4)c3C2)s1 | – | – | – | – | – | > 100 µM | – | > 100 µM | – | – | – | > 100 µM | – | > 100 µM | – | > 100 µM | – | > 100 µM | > 100 µM | –
14 | CCc1cccc(C)c1NC(=O)C(=O)Cc1nc2ccccc2s1 | – | – | – | – | – | > 100 µM | – | – | – | > 100 µM | – | > 100 µM | – | > 100 µM | – | > 100 µM | – | > 100 µM | – | –
15 | CN(/N=C/c1cccc2cccnc12)c1ccccc1 | – | – | – | – | – | > 100 µM | – | > 100 µM | – | > 100 µM | – | > 100 µM | – | > 100 µM | – | > 100 µM | – | > 100 µM | > 100 µM | –
16 | COc1ccc2ccccc2c1C1OC(=O)c2ccccc21 (stereo unspecified) | – | – | – | – | – | > 100 µM | – | > 100 µM | – | > 100 µM | – | > 100 µM | – | > 100 µM | – | > 100 µM | – | > 100 µM | > 100 µM | –
17 | C1=C2/CC[C@H](Sc3ccccc3)[C@H]2C2(CCCCC/1)OCCO2 | – | – | – | – | – | > 100 µM | – | > 100 µM | – | 54.5 µM | – | 63 µM | – | > 100 µM | – | 93 µM | – | 66.4 µM | 39.5 µM | –
18 | O=S1(=O)OCCOS(=O)(=O)C1Cc1ccccc1 | – | – | – | – | – | > 100 µM | – | – | – | > 100 µM | – | > 100 µM | – | > 100 µM | – | – | – | – | > 100 µM | –
19 | COc1ccc(C(C#N)Cc2cc(OC)c(OC)c(OC)c2)cc1 (stereo unspecified) | – | – | – | – | – | > 100 µM | – | > 100 µM | – | > 100 µM | – | > 100 µM | – | > 100 µM | – | > 100 µM | – | > 100 µM | > 100 µM | –
20 | Cc1ccc(C)c(NC(=O)CC/C(=N\NC(=O)c2c(O)ccc3ccccc23)C(C)C(=O)c2ccc(O)cc2)c1 (stereo unspecified) | – | – | – | – | – | > 100 µM | – | > 100 µM | – | – | – | > 100 µM | – | 75.9 µM | – | 41.4 µM | – | 71 µM | 39.6 µM | –
21 | Nc1[nH]nc2nc(-c3cccs3)cc(C(F)(F)F)c12 | > 24.1 µM | > 25 µM | > 25 µM | > 25 µM | > 25 µM | > 25 µM | > 25 µM | > 25 µM | – | – | > 20.3 µM | > 25 µM | > 25 µM | > 25 µM | > 25 µM | > 25 µM | – | – | > 25 µM | > 25 µM
22 | COC(=O)C1=C(c2cc(OC)c(OC)c(OC)c2)OC(c2ccc(OC)c(OC)c2)C1 (stereo unspecified) | – | – | – | – | – | – | – | > 100 µM | – | > 100 µM | – | > 100 µM | – | > 100 µM | – | > 100 µM | – | > 100 µM | > 100 µM | –
23 | C[C@]12CCC3[C@@H](CC[C@@H]4c5nonc5CC[C@]34C)C1C/C(=N/O)C2=O (stereo partly specified) | – | – | – | – | – | > 100 µM | – | > 100 µM | – | > 100 µM | – | > 100 µM | – | > 100 µM | – | > 100 µM | – | > 100 µM | > 100 µM | –
24 | CN(C(=O)c1ccco1)C(=S)N1CCN(c2ccccc2)CC1 | – | – | – | – | – | > 100 µM | – | > 100 µM | – | – | – | > 100 µM | – | > 100 µM | – | > 100 µM | – | > 100 µM | > 100 µM | –
